The values below come from patent publication US20080132505A1 (Glaxo Group Limited, priority 2004, published 2008).

Broadly, the EC50 is the midpoint of the concentration-response curve. A lower EC50 goes with an effect from little substance. Broadly, the Emax is the maximal effect, on the per cent scale that the assay sets.

The assay deals with human cannabinoid CB2 receptor (Homo sapiens, UniProt P34972). The assay can be described thus: Cannabinoid CB2 receptor agonist activity (yeast reporter assay, FDGlu fluorescence). It counts as cell-based. The following applies: for EC50: EC50 value at the cloned human cannabinoid CB2 receptor; for Emax: read-out: efficacy value (Emax relative to HU210) at the cloned human cannabinoid CB2 receptor. The procedure, abridged:
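S. cerevisiae MMY23 expressing human CB2 with a Gpa1/Gαi3 chimeric G-protein, grown 24 h at 30 °C with agonist (1% DMSO) in selective media containing 10 mM 3-aminotriazole and FDGlu, pH 7.0. Fluorescein fluorescence (485/535 nm) fitted by four-parameter curve; Emax and EMR relative to HU210.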

Chain of human cannabinoid CB2 receptor (P34972 whole entry): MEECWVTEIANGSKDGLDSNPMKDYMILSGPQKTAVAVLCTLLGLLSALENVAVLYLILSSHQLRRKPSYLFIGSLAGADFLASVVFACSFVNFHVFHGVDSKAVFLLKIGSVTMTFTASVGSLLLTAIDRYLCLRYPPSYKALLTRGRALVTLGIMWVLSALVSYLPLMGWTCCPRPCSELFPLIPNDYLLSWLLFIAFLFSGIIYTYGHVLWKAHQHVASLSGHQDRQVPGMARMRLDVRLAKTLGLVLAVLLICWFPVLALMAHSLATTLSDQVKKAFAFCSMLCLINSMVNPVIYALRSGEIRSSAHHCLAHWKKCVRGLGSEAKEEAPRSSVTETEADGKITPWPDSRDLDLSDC

As to `O=C(NCC1CCCCC1)c1cnc(Nc2ccc(F)cc2Cl)nc1C(F)(F)F` [Example 222, 2-(2-Chloro-4-fluoro-phenylamino)-4-trifluoromethyl-pyrimidine-5-carboxylic acid cyclohexylmethyl-amide], the EC50 was 20 to 300 nM and the Emax was more than 50%.

Regarding `COc1cccc(Nc2ncc(C(=O)NCC3CCC3)c(C(F)(F)F)n2)c1` [Example 205, 2-(3-Methoxyphenylamino)-4-trifluoromethyl-pyrimidine-5-carboxylic acid cyclobutylmethyl-amide], the EC50 fell in the range of 20 to 300 nM and the Emax is more than 50%.

Take `Cc1ccc(Cl)c(Nc2ncc(C(=O)NCC3CCOCC3)c(C(F)(F)F)n2)c1` [Example 113, 2-(2-Chloro-5-methyl-phenylamino)-4-tri-fluoromethyl-pyrimidine-5-carboxylic acid (tetrahydropyran-4-ylmethyl)-amide]: the EC50 was 300 to 1000 nM and the Emax was more than 50%. For `O=C(NC1CCC1)c1cnc(Nc2cccc(F)c2)nc1C(F)(F)F` [Example 29, 2-(3-Fluoro-phenylamino)-4-trifluoromethyl-pyrimidine-5-carboxylic acid cyclobutylamide], the EC50 fell in the range of 300 to 1000 nM and the Emax was more than 50%.

With `O=C(NCc1ccnc(F)c1)c1cnc(Nc2ccc(Cl)c(Cl)c2)nc1C(F)(F)F` [Example 357, 2-(3,4-Dichloro-phenylamino)-4-trifluoromethyl-pyrimidine-5-carboxylic acid (2-fluoro-pyridin-4-ylmethyl)-amide], the EC50 was 20 to 300 nM.

As for `O=C(NCC1CCCCC1)c1cnc(Nc2ccc(Cl)cc2Cl)nc1C(F)(F)F` [Example 16, 2-(2,4-Dichlorophenylamino)-4-trifluoromethylpyrimidine-5-carboxylic acid cyclohexylmethyl-amide], the 50% effective concentration (EC50) lay in the range of 20 to 300 nM and the maximal effect (Emax) is more than 50%. For `O=C(NCC1CCC1)c1cnc(Nc2cc(Cl)cc(Cl)c2)nc1C(F)(F)F` [Example 206, 2-(3,5-Dichlorophenylamino)-4-trifluoromethyl-pyrimidine-5-carboxylic acid cyclobutylmethyl-amide] the same measures were 20 to 300 nM and more than 50%. Consider `CN(CC1CCOCC1)C(=O)c1cnc(Nc2cccc(Cl)c2)nc1C(F)(F)F` [Example 211, 2-(3-Chlorophenylamino)-4-trifluoromethyl-pyrimidine-5-carboxylic acid methyl-(tetrahydro-pyran-4-ylmethyl)-amide], for which the EC50 was in the range of 20 to 300 nM and the Emax is more than 50%. On to `O=C(NCc1ccc(F)c(F)c1)c1cnc(Nc2cccc(Cl)c2)nc1C(F)(F)F` [Example 346, 2-(3-Chloro-phenylamino)-4-trifluoromethyl-pyrimidine-5-carboxylic acid 3,4-difluoro-benzylamide], for which the EC50 fell in the range of 20 to 300 nM. `COc1cccc(Nc2ncc(C(=O)NCc3ccccc3)c(C(F)(F)F)n2)c1` [Example 295, 2-(3-Methoxy-phenylamino)-4-trifluoromethyl-pyrimidine-5-carboxylic acid benzylamide]: the EC50 lay within 300 to 1000 nM and the Emax was more than 50%. For `O=C(NCC1CCOCC1)c1cnc(Nc2ccc(Cl)cc2F)nc1C(F)(F)F` [Example 99, 2-(2-Fluoro-4-chlorophenylamino)-4-trifluoromethyl-pyrimidine-5-carboxylic acid (tetrahydro-pyran-4-ylmethyl)-amide] the same measures were 300 to 1000 nM and more than 50%. The corresponding values for `O=C(NCC1CCCCC1)c1cnc(Nc2cccc(F)c2F)nc1C(F)(F)F` [Example 242, 2-(2,3-Difluorophenylamino)-4-trifluoromethyl-pyrimidine-5-carboxylic acid cyclohexylmethyl-amide] are 20 to 300 nM and more than 50%. For `O=C(NCC1CCC1)c1cnc(Nc2ccc(C(F)(F)F)c(F)c2)nc1C(F)(F)F` [Example 196, 2-(3-Fluoro-4-trifluoromethylphenylamino)-4-trifluoromethyl-pyrimidine-5-carboxylic acid cyclobutylmethyl-amide] the same measures were 20 to 300 nM and more than 50%. Compound `O=C(NCc1ccnc(F)c1)c1cnc(Nc2cccc(Br)c2)nc1C(F)(F)F` [Example 353, 2-(3-Bromo-phenylamino)-4-trifluoromethyl-pyrimidine-5-carboxylic acid (2-fluoro-pyridin-4-ylmethyl)-amide] gave an EC50 of 20 to 300 nM. Take `N#Cc1cc(Nc2ncc(C(=O)NCC3CCOCC3)c(C(F)(F)F)n2)ccc1Cl` [Example 111, 2-(4-Chloro-3-cyano-phenylamino)-4-tri-fluoromethyl-pyrimidine-5-carboxylic acid (tetrahydropyran-4-ylmethyl)-amide]: the EC50 lay within 300 to 1000 nM and the Emax was more than 50%.

For `Cc1ccc(Nc2ncc(C(=O)NCC3CCOCC3)c(C(F)(F)F)n2)c(Cl)c1` [Example 110, 2-(2-Chloro-4-methyl-phenylamino)-4-tri-fluoromethyl-pyrimidine-5-carboxylic acid (tetrahydropyran-4-ylmethyl)-amide], the EC50 fell in the range of 300 to 1000 nM and the Emax is more than 50%. Take `O=C(NCc1ccc(F)cc1)c1cnc(Nc2cc(Cl)cc(Cl)c2)nc1C(F)(F)F` [Example 290, 2-(3,5-Dichlorophenylamino)-4-trifluoromethylpyrimidine-5-carboxylic acid 4-fluorobenzyl-amide]: the EC50 is 20 to 300 nM. In the case of `O=C(NCC1CCCCC1)c1cnc(Nc2ccc(Cl)cc2Br)nc1C(F)(F)F` [Example 238, 2-(2-Bromo-4-chloro-phenylamino)-4-trifluoromethyl-pyrimidine-5-carboxylic acid cyclohexylmethyl-amide], the EC50 lay in the range of 20 to 300 nM and the Emax is more than 50%. As for `COc1cccc(Nc2ncc(C(=O)N(C)Cc3ccccc3)c(C(F)(F)F)n2)c1` [Example 297, 2-(3-Methoxy-phenylamino)-4-trifluoromethyl-pyrimidine-5-carboxylic acid N-benzyl-N-methyl-amide], the EC50 fell in the range of 300 to 1000 nM and the Emax is more than 50%. The corresponding values for `Cc1cc(Cl)ccc1Nc1ncc(C(=O)NCC2CCOCC2)c(C(F)(F)F)n1` [Example 112, 2-(4-Chloro-2-methyl-phenylamino)-4-tri-fluoromethyl-pyrimidine-5-carboxylic acid (tetrahydropyran-4-ylmethyl)-amide] are 300 to 1000 nM and more than 50%. On to `O=C(NCc1ccnc(F)c1)c1cnc(Nc2cccc(Cl)c2)nc1C(F)(F)F` [Example 294, 2-(3-Chloro-phenylamino)-4-trifluoromethyl-pyrimidine-5-carboxylic acid (2-fluoro-pyridin-4-ylmethyl)-amide], for which the EC50 lay within 20 to 300 nM.

For `O=C(NCC1CCCCC1)c1cnc(Nc2ccc(Br)cc2F)nc1C(F)(F)F` [Example 231, 2-(2-Fluoro-4-bromo-phenylamino)-4-trifluoromethyl-pyrimidine-5-carboxylic acid cyclohexylmethyl-amide], the EC50 lay within 20 to 300 nM and the Emax is more than 50%. For `O=C(NCc1ccccc1)c1cnc(Nc2cccc(F)c2)nc1C(F)(F)F` [Example 277, 2-(3-Fluorophenylamino)-4-trifluoromethylpyrimidine-5-carboxylic acid benzyl-amide] the same measures were 20 to 300 nM and more than 50%. For `O=C(NCC1CCOCC1)c1cnc(Nc2ccc(Cl)c(Cl)c2)nc1C(F)(F)F` [Example 250, 2-(3,4-Dichlorophenylamino)-4-trifluoromethylpyrimidine-5-carboxylic acid (tetrahydro-pyran-4-ylmethyl)-amide], the EC50 is 20 to 300 nM and the Emax was more than 50%. As for `N#Cc1c(Cl)cccc1Nc1ncc(C(=O)NCC2CCOCC2)c(C(F)(F)F)n1` [Example 109, 2-(3-Chloro-2-cyano-phenylamino)-4-tri-fluoromethyl-pyrimidine-5-carboxylic acid (tetrahydropyran-4-ylmethyl)-amide], the EC50 was in the range of 300 to 1000 nM and the maximum response (Emax) was more than 50%. The corresponding values for `O=C(NC1CCS(=O)(=O)CC1)c1cnc(Nc2ccc(Cl)cc2Cl)nc1C(F)(F)F` [Example 220, 2-(2,4-Dichloro-phenylamino)-4-trifluoromethyl-pyrimidine-5-carboxylic acid (1,1-dioxo-hexahydro-1l^6-thiopyran-4-yl)-amide] are 20 to 300 nM and more than 50%. Turning to `CC(C)c1cc(Nc2cccc(C(F)(F)F)c2)ncc1C(=O)NCc1ccc(F)cc1` [Example 393, N-(4-Fluoro-benzyl)-4-isopropyl-6-(3-trifluoromethyl-phenylamino)-nicotinamide], the Emax was more than 50%. In the case of `CN(Cc1ccccc1)C(=O)c1cnc(Nc2cccc(Br)c2)nc1C(F)(F)F` [Example 279, 2-(3-Bromophenylamino)-4-trifluoromethylpyrimidine-5-carboxylic acid N-benzyl-N-methylamide], the EC50 was 20 to 300 nM. As for `O=C(NCC1CCCCC1)c1cnc(Nc2cc(C(F)(F)F)cc(C(F)(F)F)c2)nc1C(F)(F)F` [Example 88, 2-(3,5-Bis-trifluoromethyl-phenylamino)-4-trifluoromethyl-pyrimidine-5-carboxylic acid cyclohexylmethyl-amide], the 50% effective concentration (EC50) was in the range of 300 to 1000 nM and the Emax is more than 50%. As to `COc1ccccc1CNC(=O)c1cnc(Nc2cccc(Cl)c2)nc1C(F)(F)F` [2-(3-Chloro-phenylamino)-4-trifluoromethyl-pyrimidine-5-carboxylic acid 2-methoxy-benzylamide], the “activity in the CB2 assay described herein” value was “inactive”. On to `O=C(NCC1CCC1)c1cnc(Nc2ccc(F)cc2Cl)nc1C(F)(F)F` [Example 224, 2-(2-Chloro-4-fluoro-phenylamino)-4-trifluoromethyl-pyrimidine-5-carboxylic acid cyclobutylmethyl-amide], for which the EC50 is 20 to 300 nM and the Emax was more than 50%.
